# Source: PMC12948427 (The Journal of Clinical Investigation, 2025)
# “And” between values parts separate entries of the source, which are not always exact repeats. Equal entries are not always repeated. Where two headings read alike, the source gives them in different places. Ends that are not written are not given here.
# Columns and labels:
# in vitro [1] = conditions: Vero E6 cells, cell viability, Figure S7F
# in vitro [2] = conditions: human, Calu-3 cells, cell viability, Figure S7G
# [3] = molecular target: hHGS 1-390-6 × HIS protein (Homo sapiens, UniProt O14964); assay: SPR binding of immobilized M peptides to HGS; conditions: without RTB; read-out: KD, binding affinity of peptide with HGS (SPR)
# hHGS 1-390-6 × HIS protein, sequence (O14964 1-390): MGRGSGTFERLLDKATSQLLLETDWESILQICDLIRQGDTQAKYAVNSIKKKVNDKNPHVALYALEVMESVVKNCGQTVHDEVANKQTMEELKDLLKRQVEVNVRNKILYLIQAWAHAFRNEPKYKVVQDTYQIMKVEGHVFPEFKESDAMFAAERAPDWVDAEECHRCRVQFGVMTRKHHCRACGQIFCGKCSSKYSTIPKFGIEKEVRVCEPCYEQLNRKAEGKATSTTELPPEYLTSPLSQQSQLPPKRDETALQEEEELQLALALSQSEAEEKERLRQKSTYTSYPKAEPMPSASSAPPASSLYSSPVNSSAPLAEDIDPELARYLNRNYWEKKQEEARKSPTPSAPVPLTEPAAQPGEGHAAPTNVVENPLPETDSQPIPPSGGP
# in vitro [4] = conditions: mouse, 17Cl-1 cells, cell viability, Figure S7E
sequence,measurement,setting,value
GRKKRRQRRRPPQESELVIGAVILR [M146],viability at 24 h,in vitro [1]; peptide concentration 2000,98.5%
same,viability at 24 h,in vitro [1]; peptide concentration 10000,97.7%
same,viability at 24 h,in vitro [1]; peptide concentration 20000,94.2%
same,viability at 24 h,in vitro [1]; peptide concentration 40000,93.1%
same,viability at 24 h,in vitro [1]; peptide concentration 80000,91.9%
same,viability at 24 h,in vitro [1]; peptide concentration 120000,88.8%
same,viability at 24 h,in vitro [1]; peptide concentration 160000,80.8%
same,viability at 24 h,in vitro [1]; peptide concentration 200000,70.8%
same,viability at 24 h,in vitro [1]; peptide concentration 400000,20%
same,viability at 24 h,in vitro [1]; peptide concentration 800000,12%
same,viability at 24 h,in vitro [1]; peptide concentration 1200000,11.4%
same,viability at 24 h,in vitro [1]; peptide concentration 1600000,14.5%
same,viability at 24 h,in vitro [2]; peptide concentration 2000,83.8%
same,viability at 24 h,in vitro [2]; peptide concentration 10000,95.2%
same,viability at 24 h,in vitro [2]; peptide concentration 20000,94.8%
same,viability at 24 h,in vitro [2]; peptide concentration 40000,93.7%
same,viability at 24 h,in vitro [2]; peptide concentration 80000,92.6%
same,viability at 24 h,in vitro [2]; peptide concentration 160000,85.6%
same,viability at 24 h,in vitro [2]; peptide concentration 200000,83%
same,viability at 24 h,in vitro [2]; peptide concentration 400000,24.4%
same,viability at 24 h,in vitro [2]; peptide concentration 800000,13%
same,viability at 24 h,in vitro [2]; peptide concentration 1200000,11%
same,viability at 24 h,in vitro [2]; peptide concentration 1600000,11.7%
same,Kd,[3],5.73 nM
same,viability at 24 h,in vitro [4]; peptide concentration 1000,99.7%
same,viability at 24 h,in vitro [4]; peptide concentration 4000,103%
same,viability at 24 h,in vitro [4]; peptide concentration 8000,95.8%
same,viability at 24 h,in vitro [4]; peptide concentration 10000,107%
same,viability at 24 h,in vitro [4]; peptide concentration 20000,92.7%
same,viability at 24 h,in vitro [4]; peptide concentration 40000,91%
same,viability at 24 h,in vitro [4]; peptide concentration 80000,71.4%
same,viability at 24 h,in vitro [4]; peptide concentration 100000,84.5%
same,viability at 24 h,in vitro [4]; peptide concentration 200000,84%
same,cytotoxicity (CCK-8),"17Cl-1 cells; 17Cl-1, up to 10^4 nM",no significant cytotoxicity
same,"cell viability, Figure S7E",17Cl-1 cells; peptide concentration 1000,99.2599 and 92.2943
same,"cell viability, Figure S7E",17Cl-1 cells; peptide concentration 4000,104.049 and 106.226
same,"cell viability, Figure S7E",17Cl-1 cells; peptide concentration 8000,108.838
same,"cell viability, Figure S7E",17Cl-1 cells; peptide concentration 10000,97.5185 and 100.566
same,"cell viability, Figure S7E",17Cl-1 cells; peptide concentration 20000,112.32 and 104.049
same,"cell viability, Figure S7E",17Cl-1 cells; peptide concentration 40000,96.2125 and 97.0832
same,"cell viability, Figure S7E",17Cl-1 cells; peptide concentration 60000,82.2812 and 103.613 and 98.3892
same,"cell viability, Figure S7E",17Cl-1 cells; peptide concentration 80000,90.5529
same,"cell viability, Figure S7E",17Cl-1 cells; peptide concentration 100000,97.0832 and 87.5054
same,"cell viability, Figure S7E",17Cl-1 cells; peptide concentration 200000,89.6822 and 71.8328
same,cytotoxicity (CCK-8),"Vero E6 cells; Vero E6, up to 10^4 nM",no significant cytotoxicity
same,"cell viability, Figure S7F",Vero E6 cells; peptide concentration 2000,100.769 and 98.8462
same,"cell viability, Figure S7F",Vero E6 cells; peptide concentration 10000,100.769 and 99.2308
same,"cell viability, Figure S7F",Vero E6 cells; peptide concentration 20000,100 and 96.5385
same,"cell viability, Figure S7F",Vero E6 cells; peptide concentration 40000,96.9231 and 96.1538
same,"cell viability, Figure S7F",Vero E6 cells; peptide concentration 80000,86.9231
same,"cell viability, Figure S7F",Vero E6 cells; peptide concentration 120000,92.3077
same,"cell viability, Figure S7F",Vero E6 cells; peptide concentration 160000,75.7692 and 76.9231
same,"cell viability, Figure S7F",Vero E6 cells; peptide concentration 200000,78.4615 and 78.8462
same,"cell viability, Figure S7F",Vero E6 cells; peptide concentration 400000,21.7308 and 21.1538
same,"cell viability, Figure S7F",Vero E6 cells; peptide concentration 800000,13.7308 and 14.2308
same,"cell viability, Figure S7F",Vero E6 cells; peptide concentration 1200000,13.4615 and 14.1154
same,"cell viability, Figure S7F",Vero E6 cells; peptide concentration 1600000,13.0385 and 11.8077
same,cytotoxicity (CCK-8),"Calu-3 cells; Calu-3, up to 10^4 nM",no significant cytotoxicity
same,"cell viability, Figure S7G",Calu-3 cells; peptide concentration 2000,95.941 and 95.203
same,"cell viability, Figure S7G",Calu-3 cells; peptide concentration 10000,97.048 and 96.679
same,"cell viability, Figure S7G",Calu-3 cells; peptide concentration 20000,96.679
same,"cell viability, Figure S7G",Calu-3 cells; peptide concentration 40000,96.31 and 87.4539
same,"cell viability, Figure S7G",Calu-3 cells; peptide concentration 80000,94.0959 and 97.048
same,"cell viability, Figure S7G",Calu-3 cells; peptide concentration 120000,77.1218 and 97.786 and 96.31
same,"cell viability, Figure S7G",Calu-3 cells; peptide concentration 160000,66.0517 and 74.9077
same,"cell viability, Figure S7G",Calu-3 cells; peptide concentration 200000,81.9188 and 68.2657
same,"cell viability, Figure S7G",Calu-3 cells; peptide concentration 400000,25.2399 and 16.7897
same,"cell viability, Figure S7G",Calu-3 cells; peptide concentration 800000,14.4649
same,"cell viability, Figure S7G",Calu-3 cells; peptide concentration 1200000,11.5867 and 10.5535
same,"cell viability, Figure S7G",Calu-3 cells; peptide concentration 1600000,13.7638 and 14.6125
